Among the data in patent publication US20150141435A1, “2-PYRIDONE ANTIMICROBIAL COMPOSITIONS” (Emergent BioSolutions, priority 2010, published 2015) are MIC values, retold here.

Converted amounts (≈) assume the structure as drawn. Where a name gives a salt, the structure may show the parent alone. Read-outs that look alike come from different tables or passages of the source. Where only a bound is given, the exact number is not on record here.

This test relates to bacterial pathogens resistant against quinolones antibiotics. The test is described as follows: MIC against quinolone-resistant bacterial pathogens (Table 5). The format is cell-based.
Setting [1] is: Enterococcus faecalis, read-out: MICs, Enterococcus faecalis vancomycin-resistant (VanB) clinical isolate, GP14.
Setting [2] is: Enterococcus faecium, read-out: MICs, Enterococcus faecium vancomycin-resistant (VanA) clinical isolate, GP17.
Where [3] appears, read: Providencia stuartii, GN24, read-out: MICs, Providencia stuartii multi-drug resistant clinical isolate, GN24.
Setting [4] is: Pseudomonas aeruginosa, GN64, read-out: MICs, Pseudomonas aeruginosa levofloxacin-resistant clinical isolate, GN64.
Where [5] appears, read: Staphylococcus aureus, MRSA, read-out: MICs, EMRSA16 Staphylococcus aureus (MRSA) SSCmec type 2, GP33.
Where [6] appears, read: Staphylococcus aureus, read-out: MICs, Staphylococcus aureus levofloxacin-resistant clinical isolate, amino acid changes GrlA, GrlB & GyrA, GP82.
The mark [7] stands for this setting: Staphylococcus aureus, read-out: MICs, Staphylococcus aureus multi-drug-resistant clinical isolate, GP5.
Where [8] appears, read: Streptococcus pneumoniae, read-out: MICs, Streptococcus pneumoniae multi-drug resistant clinical isolate, GP24.
Where [9] appears, read: read-out: MICs, Acinetobacter haumannii levofloxacin-resistant clinical isolate, GN54.
[10] abbreviates: Escherichia coli, GN03, read-out: MICs, Escherichia coli multi-drug resistant clinical isolate, GN03.

`Cc1c(-c2ccc(N)c(F)c2)ccn2c(=O)c(C(=O)O)cc(C3CC3)c12` [Example 2 K salt, 8-(4-amino-3-fluoro-phenyl)-1-cyclopropyl-9-methyl-4-oxo-4H-quinolizine-3-carboxylic acid]: the MIC reads like this: under setting [1], 0.5 µg/mL; under setting [2], 2 µg/mL; under setting [3], 1 µg/mL; under setting [4], 2 µg/mL; under setting [5], 0.12 µg/mL; under setting [6], 0.06 µg/mL. Moreover, the MIC under setting [7] is 0.06 µg/mL, the MIC under setting [8] worked out at 0.12 µg/mL and the MIC under setting [9] turned out to be 2 µg/mL.

Regarding `Cc1c(-c2ccc(N)nc2)ccn2c(=O)c(C(=O)O)cc(C3CC3)c12` [Example 21 K salt, 8-(6-amino-pyridin-3-yl)-1-cyclopropyl-9-methyl-4-oxo-4H-quinolizine-3-carboxylic acid], the MIC was 1 µg/mL under setting [1]; 4 µg/mL under setting [2]; 16 µg/mL under setting [10]; 2 µg/mL under setting [3]; 4 µg/mL under setting [4]; 0.25 µg/mL under setting [5]. In addition, the MIC under setting [6] is 0.12 µg/mL, the MIC under setting [7] amounted to 0.25 µg/mL, the MIC under setting [8] came out at 0.12 µg/mL and the MIC under setting [9] came out at 4 µg/mL.

For the compound `Cc1c(-c2ccc3[nH]ncc3c2)ccn2c(=O)c(C(=O)O)cc(C3CC3)c12` [Example 23 K salt, 1-cyclopropyl-8-(1H-indazol-5-yl)-9-methyl-4-oxo-4H-quinolizine-3-carboxylic acid], the MIC under setting [1] stood at 0.25 µg/mL; the MIC under setting [2] amounted to 0.5 µg/mL; the MIC under setting [10] came out at 4 µg/mL; the MIC under setting [3] was 1 µg/mL; the MIC under setting [4] is 2 µg/mL; the MIC under setting [5] was found to be 0.03 µg/mL. Besides, the MIC under setting [7] came to 0.03 µg/mL, the MIC under setting [8] is 0.03 µg/mL and the MIC under setting [9] is 1 µg/mL.

Regarding `Cc1c(-c2cc(F)c(N)cc2F)ccn2c(=O)c(C(=O)O)cc(C3CC3)c12` [Example 28 K salt, 8-(4-amino-2,5-difluoro-phenyl)-1-cyclopropyl-9-methyl-4-oxo-4H-quinolizine-3-carboxylic acid], the MIC was determined as 0.25 µg/mL under setting [1]; 1 µg/mL under setting [2]; 16 µg/mL under setting [10]; 1 µg/mL under setting [3]; 4 µg/mL under setting [4]; 0.06 µg/mL under setting [5]. For the same compound, the MIC by setting is: under setting [6], 0.03 µg/mL; under setting [7], 0.06 µg/mL; under setting [8], 0.06 µg/mL; under setting [9], 2 µg/mL.

Regarding `Cc1c(-c2ccc(O)cc2)ccn2c(=O)c(C(=O)O)cc(C3CC3)c12` [Example 46 K salt, 1-cyclopropyl-8-(4-hydroxy-phenyl)-9-methyl-4-oxo-4H-quinolizine-3-carboxylic acid], the MIC under setting [1] was 0.5 µg/mL; the MIC under setting [2] was 1 µg/mL; the MIC under setting [10] was 8 µg/mL; the MIC under setting [3] is 2 µg/mL; the MIC under setting [4] stood at 4 µg/mL; the MIC under setting [5] stood at 0.06 µg/mL. Also, the MIC under setting [6] turned out to be 0.03 µg/mL, the MIC under setting [7] was 0.06 µg/mL, the MIC under setting [8] is 0.12 µg/mL and the MIC under setting [9] turned out to be 2 µg/mL.

Regarding `C[C@H]1COc2c(N3CCN(C)CC3)c(F)cc3c(=O)c(C(=O)O)cn1c23` [Levofloxacin], the MIC runs as follows: (Acinetobacter haumannii levofloxacin-resistant clinical isolate, GN54, read-out: MICs) at least 16 µg/mL; (EMRSA16 Staphylococcus aureus (MRSA) SSCmec type 2, GP33, read-out: MICs) at least 16 µg/mL; (Enterococcus faecalis vancomycin-resistant (VanB) clinical isolate, GP14, read-out: MICs) at least 16 µg/mL; (Enterococcus faecium vancomycin-resistant (VanA) clinical isolate, GP17, read-out: MICs) at least 16 µg/mL; (Escherichia coli multi-drug resistant clinical isolate, GN03, read-out: MICs) at least 16 µg/mL; (Providencia stuartii multi-drug resistant clinical isolate, GN24, read-out: MICs) at least 16 µg/mL. Besides, the MIC by setting is: (Pseudomonas aeruginosa levofloxacin-resistant clinical isolate, GN64, read-out: MICs) at least 16 µg/mL; (Staphylococcus aureus multi-drug-resistant clinical isolate, GP5, read-out: MICs) at least 16 µg/mL; under setting [6], 8 µg/mL (≈ 22.1 µM); (Streptococcus pneumoniae multi-drug resistant clinical isolate, GP24, read-out: MICs) 2 µg/mL (≈ 5.53 µM).
